target: human ALK5 (Homo sapiens (Human), UniProt P36897); assay: ADP-GLO Kinases assay, inhibitory activity on ALK5; type: biochemical; conditions: purified recombinant human ALK5 2.6 nM, TGFβ1 peptide substrate, 25° C, 150 min incubation, ADP-Glo detection; read-out: ALK5 IC50
Procedure: The enzymatic activity of compounds of the present invention was monitored measuring the formation of ADP using the ADP-GLO Kinases assay. Following the incubation of the purified enzyme, a substrate and ATP, the produced ADP was converted into ATP, which in turn was converted into light by Ultra-Glo Luciferase. The luminescent signal positively correlated with ADP amount and kinase activity. […] The assay was performed in 384-well format and was validated using a selection of reference compounds that was tested in 11 point concentration-response curve.

Chain of human ALK5 (P36897 80-503 limits assumed): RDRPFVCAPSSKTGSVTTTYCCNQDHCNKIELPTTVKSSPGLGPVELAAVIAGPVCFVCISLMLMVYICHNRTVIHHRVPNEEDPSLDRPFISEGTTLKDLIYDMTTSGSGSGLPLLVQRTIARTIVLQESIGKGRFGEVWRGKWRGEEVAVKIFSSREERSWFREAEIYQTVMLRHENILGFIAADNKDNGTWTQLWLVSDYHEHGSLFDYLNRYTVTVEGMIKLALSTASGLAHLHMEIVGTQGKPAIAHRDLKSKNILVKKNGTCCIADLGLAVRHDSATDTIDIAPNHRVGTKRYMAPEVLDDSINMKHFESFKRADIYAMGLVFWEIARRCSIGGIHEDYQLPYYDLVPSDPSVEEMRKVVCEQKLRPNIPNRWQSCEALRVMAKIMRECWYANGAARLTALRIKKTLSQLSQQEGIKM

IC50 [nM] | Molecule
5 to 10 | CN1CC(NC(=O)c2cc3c(Nc4cnnc(-c5cc(Cl)ccc5F)c4)ccnc3cn2)C1 [Example 23, 4-{[6-(5-Chloro-2-Fluorophenyl)Pyridazin-4-Yl]Amino}-N-(1-Methylazetidin-3-Yl)-1,7-Naphthyridine-6-Carboxamide]
< 1 | Cc1nnc(-c2cc(Cl)ccc2F)cc1Nc1ccnc(NC(=O)CCN2CCN(C)C(C)C2)c1 (centres unmarked) [Example 145, N-(4-{[6-(5-Chloro-2-Fluorophenyl)-3-Methylpyridazin-4-Yl]Amino}Pyridin-2-Yl)-3-(3,4-Dimethylpiperazin-1-Yl)Propanamide]
< 1 | Cc1nnc(-c2cc(Cl)ccc2F)cc1Nc1ccnc(Nc2ccn(CCN3CCN(C)CC3)n2)c1 [Example 167, N-4-[6-(5-Chloro-2-Fluorophenyl)-3-Methylpyridazin-4-Yl]-N-2-{1-[2-(4-Methylpiperazin-1-Yl)Ethyl]-1H-Pyrazol-3-Yl}Pyridine-2,4-Diamine]
< 1 | CCOC1(CO)CN(CCC(=O)Nc2cc(Nc3cc(-c4cc(Cl)ccc4F)nnc3C)ccn2)C1 [Example 79, N-(4-{[6-(5-chloro-2-fluorophenyl)-3-methylpyridazin-4-yl]amino}pyridin-2-yl)-3-[3-ethoxy-3-(hydroxymethyl)azetidin-1-yl]propanamide]
< 1 | Nc1cc(Nc2cc(-c3cc(Cl)ccc3F)nnc2C(F)(F)F)ccn1 [Example 180, N4-[6-(5-Chloro-2-Fluorophenyl)-3-(Trifluoromethyl)Pyridazin-4-Yl]Pyridine-2,4-Diamine]
< 1 | Cc1nnc(-c2cc(Cl)ccc2F)cc1Nc1ccnc(NC(=O)CN2CCN(C)CC2)c1 [Example 172, N-(4-{[6-(5-Chloro-2-Fluorophenyl)-3-Methylpyridazin-4-Yl]Amino}Pyridin-2-Yl)-2-(4-Methylpiperazin-1-Yl)Acetamide]
< 1 | Cc1nnc(-c2cc(Cl)ccc2F)cc1Nc1ccnc(NC(=O)CCN2CCSCC2)c1 [Example 120, N-(4-{[6-(5-Chloro-2-Fluorophenyl)-3-Methylpyridazin-4-Yl]Amino}Pyridin-2-Yl)-3-(Thiomorpholin-4-Yl)Propanamide]
1 to 5 | COC(=O)[C@H]1CC[C@@H](c2nnc(-c3cc(Cl)ccc3F)cc2Nc2ccnc(NC(=O)CCN3CCN(C)CC3)c2)CC1 [Example 188, methyl cis-4-(6-(5-chloro-2-fluorophenyl)-4-((2-(3-(4-methylpiperazin-1-yl)propanamido)pyridin-4-yl)amino)pyridazin-3-yl)cyclohexane-1-carboxylate]
< 1 | Cc1nnc(-c2cc(Cl)ccc2F)cc1Nc1ccnc(NC(=O)CCN2CCN(C)C3(CC3)C2)c1 [Example 135, N-(4-{[6-(5-Chloro-2-Fluorophenyl)-3-Methylpyridazin-4-Yl]Amino}Pyridin-2-Yl)-3-{4-Methyl-4,7-Diazaspiro[2.5]Octan-7-Yl}Propanamide]
< 1 | CN1CCN(CCC(=O)Nc2cc(Nc3cc(-c4cc(Cl)ccc4F)nnc3C3CC3)ccn2)CC1 [Example 173]
< 1 | N#CCCN1CCN(CCC(=O)Nc2cc(Nc3cc(-c4cc(Cl)ccc4F)nnc3C(F)(F)F)ccn2)CC1 [Example 186, N-(4-{[6-(5-chloro-2-fluorophenyl)-3-(trifluoromethyl)pyridazin-4-yl]amino}pyridin-2-yl)-3-[4-(2-cyanoethyl)piperazin-1-yl]propenamide]
< 1 | CCN1CCN(CCOc2ccc3c(Nc4cnnc(-c5cc(Cl)ccc5F)c4)ccnc3c2)CC1 [Example 30, N-[6-(5-Chloro-2-Fluorophenyl)Pyridazin-4-Yl]-7-[2-(4-Ethylpiperazin-1-Yl)Ethoxy]Quinolin-4-Amine]
< 1 | O=C(OCCN1CCOCC1)c1ccc2c(Nc3cnnc(-c4cc(Cl)ccc4F)c3)ccnc2c1 [Example 6, 2-(Morpholin-4-Yl)Ethyl 4-{[6-(5-Chloro-2-Fluorophenyl)Pyridazin-4-Yl]Amino}Quinoline-7-Carboxylate]
< 1 | Cc1nnc(-c2cc(Cl)ccc2F)cc1Nc1ccnc(NC(=O)N2CCN(C)CC2)c1 [Example 85, N-(4-{[6-(5-Chloro-2-Fluorophenyl)-3-Methylpyridazin-4-Yl]Amino}Pyridin-2-Yl)-4-Methylpiperazine-1-Carboxamide]
1 to 5 | O=C(CCN1CCN(CC(F)(F)F)CC1)Nc1cc(Nc2cnnc(-c3cc(Cl)ccc3F)c2)ccn1 [Example 47, N-(4-{[6-(5-Chloro-2-Fluorophenyl)Pyridazin-4-Yl]Amino}Pyridin-2-Yl)-3-[4-(2,2,2-Trifluoroethyl)Piperazin-1-Yl]Propanamide]
< 1 | CC(=O)N1CCN(CCOc2ccc3c(Nc4cnnc(-c5cc(Cl)ccc5F)c4)ccnc3c2)CC1 [Example 35, 1-(4-{2-[(4-{[6-(5-Chloro-2-Fluorophenyl)Pyridazin-4-Yl]Amino}Quinolin-7-Yl)Oxy]Ethyl}Piperazin-1-Yl)Ethan-1-One]
< 1 | CN1CCCN(CCOc2ccc3c(Nc4cnnc(-c5cc(Cl)ccc5F)c4)ccnc3c2)C1 [Example 62, N-[6-(5-Chloro-2-Fluorophenyl)Pyridazin-4-Yl]-7-[2-(3-Methyl-1,3-Diazinan-1-Yl)Ethoxy]Quinolin-4-Amine]
< 1 | CN(CCC(=O)Nc1cc(Nc2cnnc(-c3cc(Cl)ccc3F)c2)ccn1)C1COC1 [Example 18, N-(4-{[6-(5-Chloro-2-Fluorophenyl)Pyridazin-4-Yl]Amino}Pyridin-2-Yl)-3-[Methyl(Oxetan-3-Yl)Amino]Propanamide]
< 1 | CN1CCC(CCOc2ccc3c(Nc4cnnc(-c5cc(Cl)ccc5F)c4)ccnc3c2)CC1 [Example 17, N-[6-(5-Chloro-2-Fluorophenyl)Pyridazin-4-Yl]-7-[2-(1-Methylpiperidin-4-Yl)Ethoxy]Quinolin-4-Amine]
< 1 | CN1CCN(CCCOc2ccc3c(Nc4cnnc(-c5cc(Cl)ccc5F)c4)ccnc3c2)CC1 [Example 29, N-[6-(5-Chloro-2-Fluorophenyl)Pyridazin-4-Yl]-7-[3-(4-Methylpiperazin-1-Yl)Propoxy]Quinolin-4-Amine]
< 1 | Cc1nnc(-c2cc(Cl)ccc2F)cc1Nc1ccnc(NC(=O)NCCN2CCN(C)CC2)c1 [Example 141, 1-(4-{[6-(5-Chloro-2-Fluorophenyl)-3-Methylpyridazin-4-Yl]Amino}Pyridin-2-Yl)-3-[2-(4-Methylpiperazin-1-Yl)Ethyl]Urea]
< 1 | Cc1nnc(-c2cc(Cl)ccc2F)cc1Nc1ccnc(NC(=O)c2cnn(CCN(C)C)c2)c1 [Example 156, N-(4-{[6-(5-Chloro-2-Fluorophenyl)-3-Methylpyridazin-4-Yl]Amino}Pyridin-2-Yl)-1-[2-(Dimethylamino)Ethyl]-1H-Pyrazole-4-Carboxamide]
< 1 | COC(=O)c1cc2c(Nc3cc(-c4cc(Cl)ccc4F)nnc3CO)ccnc2cc1OCCN1CCN(C)CC1 [Example 165, Methyl 4-{[6-(5-Chloro-2-Fluorophenyl)-3-(Hydroxymethyl)Pyridazin-4-Yl]Amino}-7-[2-(4-Methylpiperazin-1-Yl)Ethoxy]Quinoline-6-Carboxylate]
< 1 | Cc1nnc(-c2cc(Cl)ccc2F)cc1Nc1ccnc(NC(=O)CN2CCCN(C)CC2)c1 [Example 166, N-(4-{[6-(5-Chloro-2-Fluorophenyl)-3-Methylpyridazin-4-Yl]Amino}Pyridin-2-Yl)-2-(4-Methyl-1,4-Diazepan-1-Yl)Acetamide]
1 to 5 | CC(=O)N1CCCN(CCC(=O)Nc2cc(Nc3cnnc(-c4cc(Cl)ccc4F)c3)ccn2)C1 [Example 43, 3-(3-Acetyl-1,3-Diazinan-1-Yl)-N-(4-{[6-(5-Chloro-2-Fluorophenyl)Pyridazin-4-Yl]Amino}Pyridin-2-Yl)Propanamide]
< 1 | 1-(4-{[6-(2-Chloro-5-Fluorophenyl)-3-Methylpyridazin-4-Yl]Amino}Pyridin-2-Yl)-3-[(1-Methylpiperidin-4-Yl)Methyl]Urea [Example 142]
< 1 | CCOC(=O)C1CN(CCC(=O)Nc2cc(Nc3cc(-c4cc(Cl)ccc4F)nnc3C)ccn2)CCN1C (centres unmarked) [Example 122, Ethyl 4-{2-[(4-{[6-(5-Chloro-2-Fluorophenyl)-3-Methylpyridazin-4-Yl]Amino}Pyridin-2-Yl)Carbamoyl]Ethyl}-1-Methylpiperazine-2-Carboxylate]
< 1 | Cc1nnc(-c2cc(Cl)ccc2F)cc1Nc1ccnc(NC(=O)CN2CCCNCC2)c1 [Example 154, N-(4-{[6-(5-Chloro-2-Fluorophenyl)-3-Methylpyridazin-4-Yl]Amino}Pyridin-2-Yl)-2-(1,4-Diazepan-1-Yl)Acetamide]
< 1 | CN1CCN(CCC(=O)Nc2cc(Nc3cc(-c4cc(Cl)ccc4F)nnc3C(F)(F)F)ccn2)CC1 [Example 182, N-(4-{[6-(5-Chloro-2-Fluorophenyl)-3-(Trifluoromethyl) Pyridazin-4-Yl]Amino}Pyridin-2-Yl)-3-(4-Methylpiperazin-1-Yl)Propanamide]

Molecule | IC50 [nM]
CN1CC2CC1CN2C(=O)Oc1ccc2c(Nc3cnnc(-c4cc(Cl)ccc4F)c3)ccnc2c1 (centres unmarked) [Example 137, 4-{[6-(5-Chloro-2-Fluorophenyl)Pyridazin-4-Yl]Amino}Quinolin-7-Yl 5-Methyl-2,5-Diazabicyclo[2.2.1]Heptane-2-Carboxylate] | < 1
O=C(Oc1ccc2c(Nc3cnnc(-c4cc(Cl)ccc4F)c3)ccnc2c1)N1CCC2(CCNCC2)C1 [Example 112, 4-{[6-(5-Chloro-2-Fluorophenyl)Pyridazin-4-Yl]Amino}Quinolin-7-Yl 2,8-Diazaspiro[4.5]Decane-2-Carboxylate] | < 1
CN(C)CCN1CCN(C(=O)Oc2ccc3c(Nc4cnnc(-c5cc(Cl)ccc5F)c4)ccnc3c2)CC1 [Example 61, 4-{[6-(5-Chloro-2-Fluorophenyl)Pyridazin-4-Yl]Amino}Quinolin-7-Yl 4-[2-(Dimethylamino)Ethyl]Piperazine-1-Carboxylate] | < 1

From US20240018122A1, “PYRIDAZINYL AMINO DERIVATIVES AS ALK5 INHIBITORS” (CHIESI FARMACEUTICI S.P.A., priority 2020, published 2024)
